Assay results from patent US20240002870A1, “RAPID TRANSFORMATION OF MONOCOT LEAF EXPLANTS” (PIONEER HI-BRED INTERNATIONAL, INC., priority 2020, published 2024).
Where “and” joins values, the source holds several entries; their conditions need not be identical. Equal entries are not always repeated.

What was measured:
[1] = test system: Pioneer inbred PHH5E leaf segments; test: Auxin (2,4-D) pre-treatment of seedlings prior to Agrobacterium infection (Table 29); type: cell-based, maize; details: for T-DNA Delivery: PHP71539 plus PHP97334
[2] = test system: inbred PHH5E seedling-derived leaf segments; test: Seedling pre-treatment with ancymidol before leaf transformation; type: cell-based, maize; details: PHP97334
[3] = test system: Japonica rice (Oryza sativa var Kitaake), teff (Eragrostis tef), pearl millet (Pennisetum glaucum) seedlings; test: Ancymidol pretreatment during seed germination and seedling growth of other cereals; type: cell-based; details: 1 mg/l in 900 medium; all three cereal crops
Protocol: Both […] ancymidol pretreatments during seed germination and seedling growth were tested (using medium 900 plus 1 mg/l or 2 mg/l ancymidol) on three cereals Japonica rice (Oryza sativa var Kitaake), teff (Eragrostis tef), and pearl millet (Pennisetum glaucum). […] When seed from all three species were germinated and grown on 900 medium plus 2 mg/l ancymodiol, the seedlings only grew to a height of 1-2 cm after 14 days and although the leaf-whorl region was thicker (due to wider leaves), processing these small seedlings to produce leaf segments followed by transformation was more difficult.
In contrast, for all three cereal crops, seed germination and seedling growth on 900 plus 1 mg/l ancymidol produced an intermediate growth rate, with thicker stems and wider leaves than the control (with no ancymidol). […] Thus, compared to maize and sorghum in which 2 mg/l ancymidol pretreatment during seedling growth is optimal for leaf transformation, a lower concentration of 1 mg/l ancymidol produced optimal results in rice, tef, and pearl millet.

[4] = test system: maize plants with edited or wild-type ALS2 alleles; test: Chlorsulfuron resistance test of plants with edited and wild-type ALS2 alleles (spray, germination on medium); type: in vivo; details: for plants fourteen days after germination on media: 100 ppm; for phenotype three weeks after treatment: spray 50, 100 (1x), 200, 400 mg/liter

SMILES: O=C(O)COc1ccc(Cl)cc1Cl [2,4-D, 2,4-dichlorophenoxyacetic acid]
- No. SC Clean (single-copy T-DNA integration with no extraneous Agrobacterium sequences) ([1]; 3 mg/l 2,4-D for 24 hours): 18
- No. SC Clean (single-copy T-DNA integration with no extraneous Agrobacterium sequences) ([1]; 10 mg/l 2,4-D for 24 hours): 40
- T-DNA Delivery ([1]; 10 mg/l 2,4-D for 24 hours before infection): 4 (90-100%)
- effect on leaf transformation (Txn %, single-copy T-DNA integrations) compared to the control treatment ([1]; 10 mg/l, 24 hours): improved leaf transformation
- No. SC Clean (single-copy T-DNA integration with no extraneous Agrobacterium sequences) ([1]; 30 mg/l 2,4-D for 24 hours): 19
- T-DNA Delivery ([1]; 30 mg/l 2,4-D for 24 hours before infection): 4 (90-100%)

SMILES: COc1ccc(C(O)(c2cncnc2)C2CC2)cc1 (centres unmarked) [Ancymidol, ancymidol]
- Txn % ([2]; 2 mg/l): 236% and 358% and 303%
- Txn % ([2]; 2 mg/l, listed as ancymidol): 302%
- Txn % ([2]; 2 mg/l, total over three experiments): 302%
- Txn % ([2]; 4 mg/l): 234% and 252% and 253%
- Txn % ([2]; 4 mg/l, listed as ancymidol): 246%
- Txn % ([2]; 4 mg/l, total over three experiments): 246%
- transgenic T0 plantlets compared to the other two treatments [3]: produced the highest number of transgenic TO plantlets

SMILES: COc1nc(C)nc(NC(=O)NS(=O)(=O)c2ccccc2Cl)n1 [chlorsulfuron]
- plants fourteen days after germination on media ([4]; plants with edited alleles): normal height and a well-developed root system
- plants fourteen days after germination on media ([4]; plants with wild-type alleles): short and do not develop roots
- phenotype three weeks after treatment ([4]; T1 plants with only wild-type alleles): strong signs of senescence
- phenotype three weeks after treatment ([4]; four-week old T1 plants with an edited ALS2 allele): normal phenotype
